Assay results taken from patent US20140349852A1, “METABOLIC CONTROL OF SEED GERMINATION” (Oregon State University, priority 2010, published 2014).

Experiments:
[1] = tested on: AGE:NCED6 transgenic Camelina seeds; experiment: Germination test of Camelina AGE:NCED6 seeds; type: in vivo, Camelina sativa; set-up: recovery of germination of MOF-induced AGE:NCED6 Camelina seeds: dose or concentration left out as unconfirmed
Procedure: (§1) For the induction experiment in imbibed seeds, seeds were placed in 9 cm plastic petri dishes on two layers of filter paper (No. 2, Whatman Inc.) moistened with 4 mL water or (122.6 μM or 2×10,000) MOF or 1 mM ABA and incubated at 4° C. for overnight and at 22° C. for 72 h (germination tests and gene expression analysis).
To determine whether there was an effect of the AGE: NCED6 expression vector on the ability of transgenic seeds to undergo germination, wild-type and homozygous seeds from transgenic plant lines, 16-12, 17-17, and 13-12, were imbibed for three days in the presence or absence of MOF. […] Control seeds of non-transgenic plants were shown the same in the presence or absence of MOF. Germination of Camelina seeds is observed initially as ruptured testa followed by emergence of the […] when the radicle emerges.

[2] = tested on: control seeds of non-transgenic plants; experiment: Germination test of wild-type Camelina seeds; type: in vivo, Camelina sativa; details: presence or absence of MOF
Procedure: as §1

[3] = tested on: Arabidopsis NCED6 expression in AGE:NCED6 Camelina seeds; experiment: Real time PCR analysis of Arabidopsis NCED6 in Camelina seeds; type: in vivo, Camelina sativa; details: imbibed three days in the presence or absence of MOF
[4] = tested on: ABA levels in AGE:NCED6 Camelina seeds; experiment: ABA quantification in Camelina seeds by mass spectrometry; type: in vivo, Camelina sativa; details: after application of MOF
Procedure: ABA was quantified by a previously published method (44), but was modified to ABA. Briefly, samples were ground in liquid nitrogen and internal standards ([…] of 2.5 mM) were added. Samples were extracted with 1.5 mL acetonitrile/methanol (1:1 v:v). After lyophilization, samples were resolubilized in […] of 50% MeOH. For LC separation, two monolithic C18 columns (Onyx, 4.6 mm×100 mm, Phenomenex) with a guard cartridge were used flowing at 1 mL min^−1. […] For quantitation, a series of standards were prepared containing different concentrations of ABA mixed with D-labeled ABA (250 μmol/sample). […] The peak areas of endogenous ABA were normalized with the corresponding internal standard and then calculated according to the standard curve.
To examine whether ABA levels in the AGE: NCED6 seeds were affected by gene induction, ABA in wild-type and the AGE: NCED6 seeds was quantified by mass spectrometry, as described previously. […]

[5] = tested on: AGE:CYP707A2 transgenic Camelina seeds; experiment: Germination test of Camelina AGE:CYP707A2 seeds; type: in vivo, Camelina sativa; details: imbibed three days in the presence of MOF or MOF+ABA (1 mM ABA)
Procedure: as §1
To determine whether there was an effect of AGE: CYP707A2 transgenic seeds on germination during imbibitions, wild-type and homozygous seeds from transgenic plant lines, 14-3, 3-6, and 2-1, were imbibed for three days in the presence of MOF or in the presence of MOF+ABA.

AGE:NCED6 seeds = experiment: Germination test of imbibed AGE:NCED6 seeds; type: in vivo, Arabidopsis thaliana; details: 10 μM fluridone co-applied with Intrepid®2F
Procedure: Briefly, for the induction of AGE:NCED6 plants at ˜10 rosette stages, diluted (×10,000), Intrepid®2F (Dow AgroSciences) solution which contained 62 μM MOF as an active ingredient was applied directly to the soil in pots containing Arabidopsis seedlings by drenching. Seedling were harvested two days after induction and frozen at −80° C. before RNA extraction. For the induction experiments in imbibed seeds, seeds were placed in 9 cm plastic petri dishes on two layers of filter paper (No. 2, Whatman Inc) moistened with 3.5 mL water or Intrepid®2F (×10,000) and incubated at 4° C. for 3 days and at 22° C. for 29 h (gene expression analysis) or 5 days (germination tests).

COc1cccc(C(=O)NN(C(=O)c2cc(C)cc(C)c2)C(C)(C)C)c1C [MOF, methoxyfenozide]
inhibition of germination (endosperm rupture and radicle protrusion), line 13-12 ([1]; AGE:NCED6 Camelina line 13-12, MOF, three days): 95%
inhibition of germination (endosperm rupture and radicle protrusion), line 16-12 ([1]; AGE:NCED6 Camelina line 16-12, MOF, three days): 89%
inhibition of germination (endosperm rupture and radicle protrusion), line 17-17 ([1]; AGE:NCED6 Camelina line 17-17, MOF, three days): 90%
germination of AGE:NCED6 Camelina seeds ([1]; imbibed three days in the presence of MOF (122.6 μM)): inhibited dramatically
germination of control seeds of non-transgenic Camelina plants [2]: the same
Arabidopsis NCED6 expression in Camelina seeds by real time PCR [3]: did not detect
ABA in AGE:NCED6 Camelina seeds [4]: remarkable increase in ABA
germination of AGE:CYP707A2 Camelina seeds, line 2-1 [5]: 95%
germination of AGE:CYP707A2 Camelina seeds, line 3-6 [5]: 98%
germination of AGE:CYP707A2 Camelina seeds, line 14-3 [5]: 99%

fluridone
recovery of germination of ligand-suppressed AGE:NCED6 seeds (AGE:NCED6 seeds): fully rescued
recovery of germination of MOF-induced AGE:NCED6 Camelina seeds ([1]; co-application of MOF and fluridone, data not shown): fully rescued
